Here are results for five compounds from paper PMC3800051 (Bioorganic & medicinal chemistry letters, 2009).

The IC50 is the midpoint of a concentration-inhibition curve.

Entries after “also recorded” stand apart in the source; their conditions may differ.

Experiment [1] concerns the target T1, PLD1 (Homo sapiens, UniProt Q13393).
T1 sequence (Q13393 1-1074): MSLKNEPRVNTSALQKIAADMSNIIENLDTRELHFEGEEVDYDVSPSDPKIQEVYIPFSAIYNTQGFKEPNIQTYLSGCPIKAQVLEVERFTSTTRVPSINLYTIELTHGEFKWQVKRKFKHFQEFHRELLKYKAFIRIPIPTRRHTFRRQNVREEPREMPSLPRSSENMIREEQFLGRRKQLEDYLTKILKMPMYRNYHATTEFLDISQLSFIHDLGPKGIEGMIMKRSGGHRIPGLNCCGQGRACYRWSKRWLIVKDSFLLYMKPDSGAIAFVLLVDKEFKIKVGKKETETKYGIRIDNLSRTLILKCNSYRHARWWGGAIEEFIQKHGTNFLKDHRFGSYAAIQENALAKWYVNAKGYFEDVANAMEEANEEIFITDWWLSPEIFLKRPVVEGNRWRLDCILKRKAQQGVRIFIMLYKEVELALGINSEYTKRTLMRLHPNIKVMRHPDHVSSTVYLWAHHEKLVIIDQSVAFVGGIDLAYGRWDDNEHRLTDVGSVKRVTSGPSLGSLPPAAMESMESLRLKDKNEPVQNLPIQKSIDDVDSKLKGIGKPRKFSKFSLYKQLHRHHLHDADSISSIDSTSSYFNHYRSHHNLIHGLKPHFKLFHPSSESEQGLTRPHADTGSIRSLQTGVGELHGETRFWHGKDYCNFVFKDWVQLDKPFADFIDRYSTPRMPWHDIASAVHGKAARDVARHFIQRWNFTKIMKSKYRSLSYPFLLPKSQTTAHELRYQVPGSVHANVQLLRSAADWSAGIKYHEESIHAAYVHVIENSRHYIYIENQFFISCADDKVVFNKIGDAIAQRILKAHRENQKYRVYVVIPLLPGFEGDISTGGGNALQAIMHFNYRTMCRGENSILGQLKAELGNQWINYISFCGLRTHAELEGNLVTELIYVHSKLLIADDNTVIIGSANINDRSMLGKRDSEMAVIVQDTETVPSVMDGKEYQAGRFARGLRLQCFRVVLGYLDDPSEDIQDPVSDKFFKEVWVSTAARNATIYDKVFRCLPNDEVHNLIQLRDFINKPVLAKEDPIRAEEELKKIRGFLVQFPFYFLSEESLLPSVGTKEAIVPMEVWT
The experiment in a line: cell-based.

Experiment [2] addresses T1, PLD1. Conditions: cellular assay, Calu-1 cells.
The target of experiment [3] is PLD2 (Homo sapiens, UniProt O14939). The settings on record: cellular assay, HEK293-gfpPLD2 cells.
Chain of PLD2 (O14939 whole entry): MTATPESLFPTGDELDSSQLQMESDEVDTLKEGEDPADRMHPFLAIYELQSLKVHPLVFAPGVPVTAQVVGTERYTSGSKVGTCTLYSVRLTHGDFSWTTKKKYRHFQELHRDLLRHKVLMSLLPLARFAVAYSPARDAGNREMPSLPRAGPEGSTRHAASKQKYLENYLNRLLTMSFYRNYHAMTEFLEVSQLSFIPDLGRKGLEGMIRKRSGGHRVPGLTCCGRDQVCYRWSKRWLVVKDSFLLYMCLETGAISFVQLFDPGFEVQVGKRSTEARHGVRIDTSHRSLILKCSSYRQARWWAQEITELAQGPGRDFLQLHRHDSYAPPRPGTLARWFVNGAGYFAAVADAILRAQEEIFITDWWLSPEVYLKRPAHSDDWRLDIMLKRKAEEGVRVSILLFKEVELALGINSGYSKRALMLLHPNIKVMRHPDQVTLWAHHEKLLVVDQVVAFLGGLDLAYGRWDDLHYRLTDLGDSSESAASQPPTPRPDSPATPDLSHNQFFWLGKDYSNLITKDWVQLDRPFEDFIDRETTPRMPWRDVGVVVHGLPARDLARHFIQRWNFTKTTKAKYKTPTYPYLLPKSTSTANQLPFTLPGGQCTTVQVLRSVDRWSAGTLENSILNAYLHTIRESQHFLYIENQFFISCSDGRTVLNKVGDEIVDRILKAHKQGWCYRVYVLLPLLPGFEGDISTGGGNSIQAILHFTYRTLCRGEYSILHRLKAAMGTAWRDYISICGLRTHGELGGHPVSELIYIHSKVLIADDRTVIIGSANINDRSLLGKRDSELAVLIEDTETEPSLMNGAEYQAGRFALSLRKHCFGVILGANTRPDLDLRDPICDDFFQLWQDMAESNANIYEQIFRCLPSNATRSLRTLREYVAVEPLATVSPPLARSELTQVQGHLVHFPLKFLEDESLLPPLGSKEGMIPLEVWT

`c1cc(N2CCNCC2)ccn1` [Compound 15] came in with an IC50 in experiment [1] of 3.6 to 18 µM.

For the compound `O=C(NCCN1CCC2(CC1)C(=O)NCN2c1ccccc1)c1cnc2ccccc2n1` [Compound 9g], the “PLD1 inhibition (in words)” value in experiment [2] was “complete loss of PLD inhibitory activity”. For the same compound, in experiment [3], the “PLD2 inhibition (in words)” value is recorded as “complete loss of PLD inhibitory activity”.

For the compound `C[C@@H](CN1CCC2(CC1)C(=O)NCN2c1ccccc1)NC(=O)[C@H]1C[C@@H]1c1ccccc1` [Compound 10b], the “PLD2 inhibition (in words)” value in experiment [3] is recorded as “no effect, relative to 9a, on PLD2 inhibition”.

Compound `c1ccc(N2CCNCC2)nc1` [Compound 16] displayed an IC50 in experiment [1] of 3.6 to 18 µM.

In the case of `O=C(NCCN1CCC2(CC1)C(=O)NCN2c1ccccc1)[C@H]1C[C@@H]1c1ccccc1` [Compound 9a], the “PLD1 inhibition (in words)” value in experiment [2] is “inactive on both PLD isoforms; also recorded: complete loss of PLD inhibition”. In addition, the “PLD2 inhibition (in words)” value in experiment [3] is “inactive on both PLD isoforms; also recorded: complete loss of PLD inhibition”.
